# According to PMC9558510 (Cancers, 2022):
# Tests used:
# [1] = popPK model-informed VAMS-to-serum conversion model (self-sampled capillary blood); assay type: in vivo, human; conditions: for Ind Kbp: MAP estimate from at least one paired sample; for Ind CL/F / Ind Q/F / Ind V1/F: at-home VAMS
# Procedure: In addition to serum sampling, patients were asked to participate in the sampling of capillary blood in the clinic and at home. Micro-sampling was not obligatory for enrollment in the study. Micro-sampling was performed from a finger by drawing 20 µL of capillary blood onto the VAMS device MITRA® purchased from Neoteryx (Torrance, CA, USA). During outpatient visits, micro-sampling was conducted by medical staff in parallel to serum sampling. A maximum of six corresponding serum/VAMS samples were collected per patient. Additionally, patients were asked to perform at-home sampling after being instructed by trained staff. For each at-home sampling occasion, patients received a set including four VAMS devices. Patients were instructed to perform sampling at four different time points during the following four time slots: 9 a.m.–12 p.m., 12–3 p.m., 3–6 p.m., and 6–9 p.m. […] Samples collected during different time slots were still accepted. The time of last drug administration and sampling times were self-documented on a specific form. No special storage conditions were specified, and patients were asked to keep samples at ambient temperature until shipment. Samples were sent to the laboratory in an airtight and opaque bag containing desiccant for analysis. At-home samples were collected at up to four occasions per patient. Hematocrit was documented from the results of routine blood withdrawal for VAMS samples collected during outpatient visits. For at-home samples, the last known hematocrit was used. […]
# The conversion was based on a hematocrit-dependent formula (Figure 1). […] As proposed by Iacuzzi et al., the blood cell to plasma partition coefficient (Kbp) and intraindividual variability (IIV) were included in the conversion model and estimated from the consolidated data (Figure 1). For this purpose and to evaluate the conversion models, all the serum (Supplementary Table S1) and VAMS concentrations (collected at home or in the clinic) (Supplementary Table S2) were consolidated in a single dataset and fitted to the combined model using the EBE in Monolix 2021R1 (Lixoft SAS, Antony, France). Incorrectly sampled VAMS were removed from the dataset. The resulting individual predicted VAMS concentrations were compared with the observed VAMS concentrations. […] For trametinib, at least one paired sample per patient was included to generate the individual estimate for Kbp. A visual predictive check was performed to evaluate the predictive performance of the method.
# Figure 1 Development of the population pharmacokinetic (popPK) model-informed VAMS-to-serum conversion model. PopPK models by Balakirouchenane et al. were used to generate serum maximum a posteriori (MAP) estimates from volumetric absorptive micro-sampling (VAMS) for dabrafenib (A) and trametinib (B).
# [2] = Adverse events (CTCAE v5.0), dose reductions and treatment discontinuations; assay type: in vivo, human; conditions: for patients with dose reduction of the named drug due to AE during the study period: 27 patients
# Excerpt: AE was routinely assessed by the treating physicians at each serum sampling time point and graded according to the […] (CTCAE) Version 5.0 [35]. Additionally, permanent and temporary treatment discontinuations, dose reductions, and corresponding reasons were documented. Further recorded patient data included age, sex, height, weight, smoking status, dosing regimen, co-medication, and relevant laboratory parameters if ordered by the treating physician (platelet count, white blood cell count, absolute neutrophil count, absolute lymphocyte count, hemoglobin, bilirubin, aspartate and alanine aminotransferase, alkaline phosphatase, gamma-glutamyl transferase, amylase, lipase, creatine kinase, phosphate, sodium, glucose, serum creatinine, and estimated glomerular filtration rate). The treatment and frequency of visits were managed by the treating physicians without knowing the measured drug concentrations. AE was not assessed simultaneously with the collection of VAMS samples.
# [3] = Logistic regression of dose reduction/discontinuation vs predicted exposure; assay type: in vivo, human; conditions: for relationship between dose reduction or discontinuation due to AE and predicted serum trough concentrations or AUCτ: logistic regression, standard dosing assumed
# Procedure: Data were collected and processed using Microsoft Excel 2016 Version 16.0 (Microsoft Corporation, Redmond, WA, USA). Statistical calculations and visualization of results were performed with R Studio Version 1.2.5042 (RStudio Incorporation, Boston, MA, USA) running R version 4.0.5 (R Foundation for Statistical Computing, Vienna, Austria, 2020). For further analysis, serum concentrations were divided into groups according to time interval post-dose as follows: 0–5 h, 5–10 h, 10–14 h, and >14 h for (hydroxy-)dabrafenib and 0–10 h, 10–20 h, 20–30 h, and >30 h for trametinib. Concentrations < LLOQ were excluded from further statistical analyses. The concentrations of the same patient at the same dosage and within the same post-dose group were summarized into an individual mean serum concentration for descriptive statistical analysis to account for potential bias caused by the unbalanced number of samples per patient. […] The Wilcoxon […] test was used for unpaired samples. The correlations between individual PK parameters sampled from the conditional distribution during the generation of EBE (methods for estimation see below) and age, sex, body mass index (BMI), and co-medication were analyzed using analysis of variance (ANOVA) and Spearman’s correlation coefficient. Logistic regression was used to compare the risk of treatment discontinuations or dose reductions (dabrafenib dose reduction or discontinuation, trametinib dose reduction or discontinuation, or any dose reduction or discontinuation) with the corresponding predicted trough concentrations and area under the curve of a dosing interval (AUCτ) of dabrafenib, hydroxy-dabrafenib, and trametinib as well as with the composite predicted dabrafenib/hydroxy-dabrafenib trough concentration and with composite dabrafenib/hydroxy-dabrafenib AUCτ assuming standard dosing. The Hosmer–Lemeshow test was used to evaluate the goodness of fit for our logistic regression model. Due to the explorative nature of the study, p-values obtained from multiple comparisons were not corrected for multiple testing. A p-value < 0.05 was considered statistically significant.
# [4] = set-up: method as in PMID 32283865; conditions: popPK model population value; cited from earlier work
# [5] = MAP estimate, patient DT002, 2 mg/24 h
# [6] = MAP estimate, patient DT010, 2 mg/24 h
# [7] = MAP estimate, patient DT014, 2 mg/24 h
# [8] = MAP estimate, patient DT018, 1 mg/24 h
# [9] = MAP estimate, patient DT019, 1.5 mg/24 h
# [10] = MAP estimate, patient DT026, 2 mg/24 h
# [11] = MAP estimate, patient DT027, 2 mg/24 h
compound,measurement,setting,value
CC(=O)Nc1cccc(-n2c(=O)n(C3CC3)c(=O)c3c(Nc4ccc(I)cc4F)n(C)c(=O)c(C)c32)c1 [trametinib],Ind Kbp,[1]; patient DT002,4.84
same,Ind Kbp,[1]; patient DT010,4.98
same,Ind Kbp,[1]; patient DT014,5.36
same,Ind Kbp,[1]; patient DT018,3.89
same,Ind Kbp,[1]; patient DT019,3.91
same,Ind Kbp,[1]; patient DT026,4.38
same,Ind Kbp,[1]; patient DT027,4.41
same,Ind CL/F,[1]; [5],6.07 L/h
same,Ind Q/F,[1]; [5],97.65 L/h
same,Ind CL/F,[1]; [6],6.63 L/h
same,Ind Q/F,[1]; [6],125.55 L/h
same,Ind CL/F,[1]; [7],8.36 L/h
same,Ind Q/F,[1]; [7],129.17 L/h
same,Ind CL/F,[1]; [8],3.52 L/h
same,Ind Q/F,[1]; [8],185.04 L/h
same,Ind CL/F,[1]; [9],3.79 L/h
same,Ind Q/F,[1]; [9],77.82 L/h
same,Ind CL/F,[1]; [10],6.25 L/h
same,Ind Q/F,[1]; [10],106.5 L/h
same,Ind CL/F,[1]; [11],6.95 L/h
same,Ind Q/F,[1]; [11],65.04 L/h
same,population value for Kbp (blood cell to plasma partition coefficient),[1]; estimated from combined serum and VAMS dataset,4.62
same,IIV of ωKbp,[1]; extended trametinib model,0.31
same,patients with dose reduction of the named drug due to AE during the study period,[2],3.7%
same,patients who discontinued the named drug(s) permanently due to AE,"[2]; both drugs, or only trametinib",3.7%
same,dose reduction n (%),[2]; none,21 (77.8) n (%)
same,permanent treatment discontinuation n (%),[2]; none,18 (66.7) n (%)
same,temporary treatment discontinuation n (%),[2]; none,17 (63.0) n (%)
same,permanent treatment discontinuation n (%),[2]; reason: adverse events,3 (11.1) n (%)
same,relationship between dose reduction or discontinuation due to AE and predicted serum trough concentrations or AUCτ,[3],no significant relationships
same,effect of Cmin on probability of dose reduction or treatment discontinuation (logistic regression),"[3]; predicted trough concentration as exposure surrogate, intercept -0.349, p-value 0.0798",0.06178
same,CENT (central compartment) volume,[4],61.9 L
same,CL/F (oral clearance from central compartment),[4],5.83 L/h
same,PER (peripheral compartment) volume,[4],417 L
same,Tlag (lag time before beginning of absorption process),[4],0.709 h
same,ka (absorption rate constant),[4],0.913 h⁻¹
CC(C)(C)c1nc(-c2cccc(NS(=O)(=O)c3c(F)cccc3F)c2F)c(-c2ccnc(N)n2)s1 [dabrafenib],Ind V1/F,"[1]; MAP estimate, patient DT002, 150 mg/12 h",30.8 L
same,Ind V1/F,"[1]; MAP estimate, patient DT005, 150 mg/12 h",24.7 L
same,Ind V1/F,"[1]; MAP estimate, patient DT010, 150 mg/12 h",14.3 L
same,Ind V1/F,"[1]; MAP estimate, patient DT014, 150 mg/12 h",30.2 L
same,Ind V1/F,"[1]; MAP estimate, patient DT018, 150 mg/12 h",82.5 L
same,Ind V1/F,"[1]; MAP estimate, patient DT019, 150 mg/12 h",39.5 L
same,Ind V1/F,"[1]; MAP estimate, patient DT026, 100 mg/12 h",40.3 L
same,Ind V1/F,"[1]; MAP estimate, patient DT027, 150 mg/12 h",71.5 L
same,Ind CL/F,"[1]; patient DT002, occasion 1, 150 mg/12 h",13.5 L/h
same,Ind CL/F,"[1]; patient DT002, occasion 2, 150 mg/12 h",17.2 L/h
same,Ind CL/F,"[1]; patient DT002, occasion 3, 150 mg/12 h",21.1 L/h
same,Ind CL/F,"[1]; patient DT005, occasion 1, 150 mg/12 h",20.7 L/h
same,Ind CL/F,"[1]; patient DT010, occasion 1, 150 mg/12 h",18.5 L/h
same,Ind CL/F,"[1]; patient DT010, occasion 2, 150 mg/12 h",33.3 L/h
same,Ind CL/F,"[1]; patient DT010, occasion 3, 150 mg/12 h",12.1 L/h
same,Ind CL/F,"[1]; patient DT014, occasion 1, 150 mg/12 h",30.1 L/h
same,Ind CL/F,"[1]; patient DT018, occasion 1, 150 mg/12 h",24.7 L/h
same,Ind CL/F,"[1]; patient DT018, occasion 2, 150 mg/12 h",14.9 L/h
same,Ind CL/F,"[1]; patient DT018, occasion 3, 150 mg/12 h",37.5 L/h
same,Ind CL/F,"[1]; patient DT018, occasion 4, 150 mg/12 h",32.3 L/h
same,Ind CL/F,"[1]; patient DT019, occasion 1, 150 mg/12 h",33.1 L/h
same,Ind CL/F,"[1]; patient DT019, occasion 2, 150 mg/12 h",15.8 L/h
same,Ind CL/F,"[1]; patient DT019, occasion 3, 150 mg/12 h",9.8 L/h
same,Ind CL/F,"[1]; patient DT019, occasion 4, 150 mg/12 h",24.2 L/h
same,Ind CL/F,"[1]; patient DT026, occasion 1, 100 mg/12 h",33.3 L/h
same,Ind CL/F,"[1]; patient DT026, occasion 2, 100 mg/12 h",41.1 L/h
same,Ind CL/F,"[1]; patient DT026, occasion 3, 100 mg/12 h",38.7 L/h
same,Ind CL/F,"[1]; patient DT027, occasion 1, 150 mg/12 h",28.6 L/h
same,Ind CL/F,"[1]; patient DT027, occasion 2, 150 mg/12 h",23.2 L/h
same,Ind CL/F,"[1]; patient DT027, occasion 3, 150 mg/12 h",36.5 L/h
same,patients with dose reduction of the named drug due to AE during the study period,[2],7.4%
same,dose reduction n (%),[2]; none,24 (88.9) n (%)
same,permanent treatment discontinuation n (%),[2]; none,19 (70.4) n (%)
same,temporary treatment discontinuation n (%),[2]; none,17 (63.0) n (%)
same,permanent treatment discontinuation n (%),[2]; reason: adverse events,2 (7.4) n (%)
same,relationship between dose reduction or discontinuation due to AE and predicted serum trough concentrations or AUCτ,[3],no significant relationships
same,CENT (central compartment) volume,[4],39.5 L
same,CL/F (oral clearance from central compartment),[4],17.7 L/h
same,PER (peripheral compartment) volume,[4],19.6 L
same,Tlag (lag time before beginning of absorption process),[4],0.5 h
same,ka (absorption rate constant),[4],1.8 h⁻¹
